Assay results: patent US20100266692A1, “NANOPARTICLES COMPRISING A NON-IONIZABLE POLYMER AND AN ANIONIC CELLULOSIC POLYMER” (priority 2007, published 2010)
In brackets after ≈: the same amount, converted by molar mass.

How the values were obtained:
Log P of drug = type: physicochemical; details: octanol/water
Description: The first property of hydrophobic drugs is that they are extremely hydrophobic. Log P, defined as the base 10 logarithm of the ratio of the drug solubility in octanol to the drug solubility in water, is a widely accepted measure of hydrophobicity. By “extremely hydrophobic” is meant that the Log P value of the drug is at least 4.0, preferably at least 4.5, and most preferably at least 5.0. Log P may be measured experimentally or calculated using methods known in the art. When using a calculated value for Log P, the highest value calculated using any generally accepted method for calculating Log P is used. Calculated Log P values are often referred to by the calculation method, such as Clog P, Alog P, and Mlog P. The Log P may also be estimated using fragmentation methods, such as Crippen's fragmentation method (27 J. Chem. Inf. Comput. Sci. 21 (1987)); Viswanadhan's fragmentation method (29 J. Chem. Inf. Comput. Sci. 163 (1989)); or Broto's fragmentation method (19 Eur. J. Med. Chem.-Chim. Theor. 71 (1984). Preferably the Log P value is calculated by using the average value estimated using Crippen's, Viswanadhan's, and Broto's fragmentation methods.

[1] = Solubility of drug in water; type: physicochemical
[2] = Solubility in model fasted duodenal (MFD) solution; type: physicochemical; details: fassgf or other biorelevant, PBS containing 7.3 mM sodium taurocholic acid and 1.4 mM 1-palmitoyl-2-oleyl-sn-glycero-3-phosphocholine
[3] = Protocol: The polymer is a poorly aqueous soluble non-ionizable polymer. […] An appropriate PBS solution is an aqueous solution consisting of 20 mM sodium phosphate (Na2HPO4), 47 mM potassium phosphate (KH2PO4), 87 mM NaCl, and 0.2 mM KCl, adjusted to pH 6.5 with NaOH. A test to determine whether the polymer is poorly aqueous soluble may be performed as follows. The polymer is initially present in bulk powder form with average particle sizes of greater than about 1 micron. The polymer alone is administered at a concentration of 0.2 mg/mL to the PBS solution and stirred for approximately 1 hour at room temperature. Next, a nylon 0.45 μm filter is weighed, and the polymer solution is filtered. The filter is dried overnight at 40° C., and weighed the following morning. The amount of polymer dissolved is calculated from the amount of polymer added to the PBS solution minus the amount of polymer remaining on the filter (mg). […] First, 0.2 mg/mL of the polymer was added to a PBS solution consisting of 20 mM Na2HPO4, 47 mM KH2PO4, 87 mM NaCl, and 0.2 mM KCl, adjusted to pH 6.5 with NaOH. The polymer was stirred in the PBS solution for approximately 1 hour at room temperature. […] The amount of soluble polymer was calculated from the amount of polymer added to form the polymer solution minus the amount of polymer remaining on the filter.

Compound | logP (Log P of drug) | solubility [1] [µg/mL] | solubility [2] [µg/mL] | Amount Soluble at pH 6.5 [3] [mg/mL]
Cc1onc(-c2ccccc2)c1-c1ccc(S(N)(=O)=O)cc1 [Drug 1, 4-(5-methyl-3-phenyl-4-isoxazolyl) benzenesulfonamide, reference compound] | ~3 | ~10 (≈ 31.8 µM) | – | –
CC[C@@H]1C[C@H](N(Cc2cc(C(F)(F)F)cc(C(F)(F)F)c2)C(C)=O)c2cc(C(F)(F)F)ccc2N1C(=O)OC(C)C [Drug 2, [2R,4S]-4-[acetyl-(3,5-bis-trifluoromethyl-benzyl)-amino]-2-ethyl-6-trifluoromethyl-3,4-dihydro-2H-quinoline-1-carboxylic acid isopropyl ester] | 6.7 | < 1 | – | –
Cc1ccc(-c2cc(C(F)(F)F)nn2-c2ccc(S(N)(=O)=O)cc2)cc1 [Drug 3, 4-[5-(4-methylphenyl)-3-(trifluoromethyl)-1H-pyrazol-1-yl]benzenesulfonamide] | – | – | ~40 (≈ 105 µM) | –

The remaining lines, values ahead:

logP (Log P of drug) | solubility [1] [µg/mL] | solubility [2] [µg/mL] | Amount Soluble at pH 6.5 [3] [mg/mL] | Compound
– | – | – | 0.03 | cellulose acetate
– | – | – | <0.001 | ethylcellulose
